The values that follow come from ChEMBL document CHEMBL1201862, “PubChem BioAssay data set” (2004).

The target in one assay is T1, CAAX prenyl protease 2 (Saccharomyces cerevisiae S288c, UniProt Q03530).
T1 sequence (Q03530 whole entry): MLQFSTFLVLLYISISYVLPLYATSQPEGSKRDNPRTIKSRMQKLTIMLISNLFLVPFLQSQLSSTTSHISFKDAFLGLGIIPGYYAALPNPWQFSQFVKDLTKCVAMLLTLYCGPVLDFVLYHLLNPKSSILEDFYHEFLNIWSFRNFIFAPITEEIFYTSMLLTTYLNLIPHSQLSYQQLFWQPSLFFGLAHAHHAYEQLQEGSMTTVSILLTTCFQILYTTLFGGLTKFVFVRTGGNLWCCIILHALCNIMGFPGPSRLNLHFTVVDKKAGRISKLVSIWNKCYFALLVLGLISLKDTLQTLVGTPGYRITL
It counts as biochemical.

The target of the next assay is T2, Coagulation factor XII (Homo sapiens, UniProt P00748).
T2 sequence (P00748 whole entry): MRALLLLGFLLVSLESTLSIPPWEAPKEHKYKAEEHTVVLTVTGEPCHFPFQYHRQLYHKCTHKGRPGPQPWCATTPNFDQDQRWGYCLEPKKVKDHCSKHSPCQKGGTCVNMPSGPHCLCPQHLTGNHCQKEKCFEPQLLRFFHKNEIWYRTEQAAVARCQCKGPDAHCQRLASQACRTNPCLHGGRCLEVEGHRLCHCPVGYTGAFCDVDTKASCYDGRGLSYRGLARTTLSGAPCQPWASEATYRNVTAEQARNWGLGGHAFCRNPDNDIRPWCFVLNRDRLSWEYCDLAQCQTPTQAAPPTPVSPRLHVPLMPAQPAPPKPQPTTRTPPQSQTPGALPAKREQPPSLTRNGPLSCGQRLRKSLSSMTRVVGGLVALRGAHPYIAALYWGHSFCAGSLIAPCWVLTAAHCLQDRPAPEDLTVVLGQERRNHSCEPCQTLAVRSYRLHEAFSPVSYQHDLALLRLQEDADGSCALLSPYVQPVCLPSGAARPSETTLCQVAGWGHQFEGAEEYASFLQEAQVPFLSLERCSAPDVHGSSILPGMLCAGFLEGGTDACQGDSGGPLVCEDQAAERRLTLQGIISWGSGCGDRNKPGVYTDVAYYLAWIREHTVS
Briefly: activated coagulation factor XII inhibitor potency, concentration-effect curve, cell-free (AID 716). Format: functional.

The target of assay [1] is Eukaryotic translation initiation factor 4H (Homo sapiens, UniProt Q15056). Briefly: inhibitors of translation initiation factor eIF4H – SAR follow-up (AID 435011). Format: functional.
Assay [2] addresses Polyadenylate-binding protein 1 (Homo sapiens, UniProt P11940). Briefly: PABP inhibition in translation initiation, SAR follow-up (AID 435018). It counts as functional.
For assay [3], the target named is Glyceraldehyde-3-phosphate dehydrogenase (Homo sapiens, UniProt P04406).
Assay [4] concerns the target Alkaline phosphatase, placental type (Homo sapiens, UniProt P05187). Put plainly: human placental alkaline phosphatase inhibition – biochemical, luminescence, confirmation (AID 1512). Format: functional.
Assay [5] deals with T3, Alkaline phosphatase, tissue-nonspecific isozyme (Homo sapiens, UniProt P05186).
T3 sequence (P05186 whole entry): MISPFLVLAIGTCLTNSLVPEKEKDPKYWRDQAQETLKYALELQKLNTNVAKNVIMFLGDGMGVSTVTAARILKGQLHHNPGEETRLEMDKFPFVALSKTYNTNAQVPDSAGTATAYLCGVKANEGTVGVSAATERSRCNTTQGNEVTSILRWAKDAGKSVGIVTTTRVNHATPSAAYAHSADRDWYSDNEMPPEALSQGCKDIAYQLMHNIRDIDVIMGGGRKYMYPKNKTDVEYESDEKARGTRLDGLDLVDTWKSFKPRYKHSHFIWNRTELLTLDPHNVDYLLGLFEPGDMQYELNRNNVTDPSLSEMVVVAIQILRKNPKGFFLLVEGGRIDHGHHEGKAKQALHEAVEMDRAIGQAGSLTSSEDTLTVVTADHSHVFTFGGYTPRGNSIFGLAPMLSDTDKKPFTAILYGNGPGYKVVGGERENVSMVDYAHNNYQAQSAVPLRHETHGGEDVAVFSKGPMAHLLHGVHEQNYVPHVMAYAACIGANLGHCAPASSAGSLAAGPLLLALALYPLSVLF
Briefly: potency against alkaline phosphatase TNAP – biochemical, luminescent, dose response, SAR follow-up (AID 1056).

The structures appear in SMILES notation. Active and inactive are the calls of the source. For most assays here, no stated cut-off is given here; in the data, actives have a measured IC50 and inactives only a lower limit.

Chain of Polyadenylate-binding protein 1 (P11940 whole entry): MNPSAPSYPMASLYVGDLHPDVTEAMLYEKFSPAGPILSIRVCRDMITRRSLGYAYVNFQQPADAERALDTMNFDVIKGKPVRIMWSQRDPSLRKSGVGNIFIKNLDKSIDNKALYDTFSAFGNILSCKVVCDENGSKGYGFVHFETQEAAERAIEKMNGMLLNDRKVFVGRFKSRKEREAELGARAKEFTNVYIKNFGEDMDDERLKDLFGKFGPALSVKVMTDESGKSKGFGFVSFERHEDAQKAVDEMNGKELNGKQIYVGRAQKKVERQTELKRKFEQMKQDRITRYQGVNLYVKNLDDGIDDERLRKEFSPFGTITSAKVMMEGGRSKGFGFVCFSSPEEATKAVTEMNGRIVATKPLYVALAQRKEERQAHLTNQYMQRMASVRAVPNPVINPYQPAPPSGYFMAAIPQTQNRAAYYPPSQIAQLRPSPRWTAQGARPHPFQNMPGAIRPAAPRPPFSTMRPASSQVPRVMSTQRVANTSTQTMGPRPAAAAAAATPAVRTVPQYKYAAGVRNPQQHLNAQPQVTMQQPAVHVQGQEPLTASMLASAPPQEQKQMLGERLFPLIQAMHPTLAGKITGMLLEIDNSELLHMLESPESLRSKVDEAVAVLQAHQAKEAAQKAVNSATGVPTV
Chain of Glyceraldehyde-3-phosphate dehydrogenase (P04406 whole entry): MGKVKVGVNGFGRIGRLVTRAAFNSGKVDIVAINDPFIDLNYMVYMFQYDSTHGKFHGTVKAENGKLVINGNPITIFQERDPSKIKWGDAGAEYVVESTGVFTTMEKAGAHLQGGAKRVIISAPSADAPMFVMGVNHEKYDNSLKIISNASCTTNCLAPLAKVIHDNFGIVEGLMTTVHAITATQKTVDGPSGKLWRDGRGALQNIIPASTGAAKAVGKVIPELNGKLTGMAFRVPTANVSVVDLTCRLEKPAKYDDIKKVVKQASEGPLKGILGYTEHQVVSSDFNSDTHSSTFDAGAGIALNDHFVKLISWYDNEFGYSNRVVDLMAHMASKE
Chain of Alkaline phosphatase, placental type (P05187 whole entry): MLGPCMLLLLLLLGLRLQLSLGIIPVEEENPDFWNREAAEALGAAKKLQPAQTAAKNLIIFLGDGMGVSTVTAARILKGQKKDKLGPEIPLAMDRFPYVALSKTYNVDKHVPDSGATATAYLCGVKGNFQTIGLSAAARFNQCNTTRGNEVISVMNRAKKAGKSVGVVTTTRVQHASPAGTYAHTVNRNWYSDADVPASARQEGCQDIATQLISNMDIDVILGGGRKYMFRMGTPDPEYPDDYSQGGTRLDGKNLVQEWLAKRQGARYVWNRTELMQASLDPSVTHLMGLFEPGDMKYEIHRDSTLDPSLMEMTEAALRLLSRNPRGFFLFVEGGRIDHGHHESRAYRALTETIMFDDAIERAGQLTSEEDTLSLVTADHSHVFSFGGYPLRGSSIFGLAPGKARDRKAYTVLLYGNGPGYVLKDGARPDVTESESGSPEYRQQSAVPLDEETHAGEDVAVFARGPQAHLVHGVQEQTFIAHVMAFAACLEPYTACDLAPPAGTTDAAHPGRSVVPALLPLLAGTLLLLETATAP

Regarding `Cc1ccc(OCCn2c3ccccc3n3nc(C)c(=O)nc23)cc1`, at CAAX prenyl protease 2, the AC50 is 6.85 µM (active).

As for `CCOC(=O)c1sc2ncnc(N3CCN(C(=O)OCC)CC3)c2c1C`, the IC50 at Coagulation factor XII is > 50 µM (inactive).

As to `C=CCn1c(COc2ccc(CC)cc2)nnc1SCC(=O)N(C)C1CCS(=O)(=O)C1` (centres undefined), at Coagulation factor XII, the IC50 is > 50 µM (inactive).

As for `COc1ccc(NC(=O)C2CCCN2C(=O)Oc2ccccc2)cc1` (centres undefined), the IC50 in assay [1] and in assay [2] was > 100 µM (inactive) each time.

Consider `CCN(CC)S(=O)(=O)c1ccc(C(=O)NCC(c2cccs2)N2CCOCC2)cc1` (centres undefined), for which the IC50 at Coagulation factor XII was > 50 µM (inactive).

With `Nc1nc(Cc2cccc(Br)c2)n(-c2ccccc2)n1`, the figures for the IC50 in assay [3], in assay [4] and in assay [5] were > 100 µM (not active), > 100 µM (inactive) and > 100 µM (inactive), respectively.
